We go through five compounds from ChEMBL document CHEMBL1201862, “PubChem BioAssay data set” (2004).

Each structure is given as a SMILES string.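 Protocol summary: plate cells (96-well), add compound at 5 concentrations, incubate 48 h, interpolate endpoints linearly. GI50 is the concentration that inhibits growth by half.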 Calls of active or inactive are those of the source. No stated cut-off is given here; in the data, active = GI50 up to about 1.1 µM and inactive = higher.

Usually GI50 stands for the concentration giving 50% growth inhibition.

Some test systems named below: HOP-62; LOX IMVI; COLO 205; OVCAR-4; Malme-3M; SK-OV-3; HT-29; NCI-H522; KM12; HCT-15; A549; K562; CCRF-CEM; NCI-H226; SK-MEL-5; IGROV-1; 786-0.
Holding throughout (experiment): DTP human tumour cell line panel, 48 h

As to `O=C(CC(=O)c1ccccc1)C(=O)NC12CC3CC(CC(C3)C1)C2`, the GI50 in the experiment with HOP-62 was > 100 µM (inactive); in the experiment with LOX IMVI it was > 34.6 µM (inactive); in the experiment on COLO 205, > 45 µM (inactive); with OVCAR-4, > 100 µM (inactive); with Malme-3M, > 100 µM (inactive); in the experiment on SK-OV-3, > 100 µM (inactive). Moreover, the GI50 is > 100 µM (inactive) in the experiment on HT-29; > 83.4 µM (inactive) with NCI-H522; > 100 µM (inactive) in the experiment on KM12; above 37.8 µM in the experiment with HCT-15; > 54.1 µM (inactive) in the experiment with A549; > 56.9 µM (inactive) in the experiment with K562. For the same compound, the GI50 is > 49.2 µM (inactive) with CCRF-CEM; > 100 µM (inactive) with NCI-H226; > 100 µM (inactive) in the experiment with SK-MEL-5; > 100 µM (inactive) in the experiment on IGROV-1; > 56.2 µM (inactive) in the experiment on 786-0.
On to `COC(=N)/C(=C1\OC(=N)C(c2ccc(Cl)cc2)=C1O)c1ccc(Cl)cc1`, for which the GI50 with HOP-62, with LOX IMVI, in the experiment with COLO 205, in the experiment on OVCAR-4, in the experiment on Malme-3M and with SK-OV-3 was > 100 µM (inactive) throughout. The GI50 in the experiment with HT-29 is > 100 µM (inactive); in the experiment on NCI-H522 it was > 100 µM (inactive); with KM12, > 100 µM (inactive); with HCT-15, above 100 µM; in the experiment with A549 it was > 100 µM (inactive); with K562, > 100 µM (inactive). Besides, the GI50 with CCRF-CEM was 70.5 µM (inactive); in the experiment on NCI-H226, > 100 µM (inactive); with SK-MEL-5 it was > 100 µM (inactive); in the experiment with IGROV-1 it was > 100 µM (inactive); in the experiment on 786-0, > 100 µM (inactive).
For the compound `CCOc1cc2c(C(=O)CC)c(O)ccc2o1`, the GI50 was > 100 µM (inactive) with HOP-62; > 100 µM (inactive) in the experiment with LOX IMVI; > 67.9 µM (inactive) with COLO 205; > 40.8 µM (inactive) in the experiment with OVCAR-4; > 100 µM (inactive) with Malme-3M; > 48.1 µM (inactive) with SK-OV-3. For the same compound, the GI50 was 39 µM (inactive) in the experiment with HT-29; > 100 µM (inactive) in the experiment with NCI-H522; > 100 µM (inactive) with KM12; above 100 µM with HCT-15; > 100 µM (inactive) in the experiment with A549; 28.8 µM (inactive) with K562. For the same compound, the GI50 was 24.9 µM (inactive) with CCRF-CEM; > 100 µM (inactive) with NCI-H226; > 39.3 µM (inactive) in the experiment with SK-MEL-5; > 100 µM (inactive) in the experiment on IGROV-1; > 100 µM (inactive) in the experiment on 786-0.
Regarding `CC(=O)/C(=C\c1ccccc1)C(=O)Nc1ccccc1`, the GI50 in the experiment on HOP-62, with LOX IMVI, in the experiment on OVCAR-4, in the experiment on Malme-3M, in the experiment on SK-OV-3 and with HT-29 was > 100 µM (inactive) throughout. In addition, the GI50 in the experiment on NCI-H522, in the experiment with KM12, in the experiment with A549, with K562, in the experiment with CCRF-CEM and in the experiment with NCI-H226 was > 100 µM (inactive) each time. Besides, the GI50 with SK-MEL-5, with IGROV-1 and in the experiment on 786-0 was > 100 µM (inactive) each time.
With `CC1=C(C(=O)CC(=O)C(=O)Nc2cccc(C)c2C)Sc2ccccc2N1`, the GI50 with HOP-62, with LOX IMVI, in the experiment on OVCAR-4, with Malme-3M, with SK-OV-3 and with HT-29 was > 100 µM (inactive) each time. Further, the GI50 in the experiment with NCI-H522 was > 100 µM (inactive); with KM12, > 100 µM (inactive); with HCT-15, above 100 µM; with A549, > 100 µM (inactive); in the experiment with K562, > 100 µM (inactive); in the experiment on CCRF-CEM, > 100 µM (inactive). The GI50 in the experiment with NCI-H226, in the experiment on SK-MEL-5, in the experiment with IGROV-1 and in the experiment with 786-0 was > 100 µM (inactive) each time.
